Assay: Saturation solubility of color developer free base in solvents and solvent/water mixtures (HPLC and NMR)
Details: for Solubility in the solvents evaluated (in words): all solvents evaluated, room temperature; for CD Free Base Conc. (saturation solubility): ambient temperature, 3% DEHA added
Procedure: Representative solvents were selected from each of the different classes of solvents: alcohols, glycols and glycol ethers. A small quantity of a representative preservative, 3% of N,N-dietheylhydroxylamine (DEHA), was added.

| Solubility in the solvents evaluated (in words) | CD Free Base Conc. (saturation solubility) (2-Propanol/Water 10:90 (weight:weight)) [weight percent] | CD Free Base Conc. (saturation solubility) (2-Propanol/Water 50:50 (weight:weight)) [weight percent] | CD Free Base Conc. (saturation solubility) (2-Propanol/Water 90:10 (weight:weight)) [weight percent] | Solubility in 2-propanol (in words) (2-propanol) | CD Free Base Conc. (saturation solubility) (Ethanol/Water 10:90 (weight:weight)) [weight percent] | CD Free Base Conc. (saturation solubility) (Ethanol/Water 50:50 (weight:weight)) [weight percent] | CD Free Base Conc. (saturation solubility) (Ethanol/Water 90:10 (weight:weight)) [weight percent] | CD Free Base Conc. (saturation solubility) (Methanol/Water 10:90 (weight:weight)) [weight percent] | CD Free Base Conc. (saturation solubility) (Methanol/Water 50:50 (weight:weight)) [weight percent] | CD Free Base Conc. (saturation solubility) (Methanol/Water 90:10 (weight:weight)) [weight percent] | CD Free Base Conc. (saturation solubility) (solvent 2-Isopropoxyethanol) [weight percent] | CD Free Base Conc. (saturation solubility) (solvent 2-Methyl-1,3-Propanediol) [weight percent] | CD Free Base Conc. (saturation solubility) (solvent 2-Propanol) [weight percent] | CD Free Base Conc. (saturation solubility) (solvent 3-Methoxy-1-Butanol) [weight percent] | CD Free Base Conc. (saturation solubility) (solvent Diethylene Glycol) [weight percent] | CD Free Base Conc. (saturation solubility) (solvent Ethanol) [weight percent] | CD Free Base Conc. (saturation solubility) (solvent Methanol) [weight percent] | CD Free Base Conc. (saturation solubility) (solvent PEG-200) [weight percent] | CD Free Base Conc. (saturation solubility) (solvent PEG-300) [weight percent] | SMILES |
| --- | --- | --- | --- | --- | --- | --- | --- | --- | --- | --- | --- | --- | --- | --- | --- | --- | --- | --- | --- | --- |
| fully miscible | – | – | – | – | – | – | – | – | – | – | – | – | – | – | – | – | – | – | – | CCN(CC)c1ccc(N)c(C)c1 [CD-2 free base, 4-amino-3-methyl-N,N-diethylaniline] |
| lesser solubility | 0.8 | 9.2 | 7.8 | low solubility | 0.6 | 9.0 | 9.7 | 0.7 | 6.8 | 18.9 | 8.6 | 3.3 | 1.8 | 9.3 | 15.2 | 5.4 | 23.6 | 16.9 | 16.7 | CCN(CCNS(C)(=O)=O)c1ccc(N)c(C)c1 [CD-3 free base, 4-amino-3-methyl-N-ethyl-N-(2-methanesulfonamidoethyl)aniline] |
